“And” between values parts separate entries of the source, which are not always exact repeats. Identical values can stand only once. After the bases stand the sugars from the 5' end (letter, count) and the backbone: PS all phosphorothioate, else s phosphorothioate and o phosphodiester by linkage. Methylation of C is not given here. e = 2'-O-(2-methoxyethyl) (MOE); k = constrained ethyl (cEt); d = 2'-deoxy (DNA); m = 2'-O-methyl

In the OligoGym collection one finds target mRNA inhibition data, which are given here for 29 sequences.

For data set [1], the target named is IRF4. As to conditions: ASO.
Data set [2] has as its target HSD17B13. As to conditions: ASO, HepaRG.

With “CTATAGTGTTCCAGGA (sugars kkkdddddddddkeke, PS)”, the target mRNA inhibition in data set [1] (MM.1R, 1 µM) came out at 22%.
TACGAGCACATGTCAA (sugars k3 d10 k3, PS): in data set [1] (SK-MEL-28, 4 µM), the target mRNA inhibition was found to be 36%.
As for GACTCAAGAAAATAGG (sugars k3 d10 k3, PS), in data set [1] (SK-MEL-28, 4 µM), the target mRNA inhibition amounted to 64%.
Turning to “AGTGATGTCAGGTTTT (sugars k3 d9 k3 e1, PS)”, the target mRNA inhibition came out at 13% in data set [1] (MM.1R, 0.074 µM); 40% in data set [1] (MM.1R, 0.222 µM); 64% in data set [1] (MM.1R, 0.666 µM); 65% in data set [1] (MM.1R, 1 µM); 86% in data set [1] (MM.1R, 2 µM).
Consider AGTGTTCCAGGAGATA (sugars k3 d10 k3, PS), for which the target mRNA inhibition in data set [1] (MM.1R, 0.0625 µM) was 43%; in data set [1] (MM.1R, 0.25 µM), 59%; in data set [1] (MM.1R, 1 µM), 80% and 72%; in data set [1] (MM.1R, 4 µM), 84%.
On to TTAGCCAATTCCTCCA (sugars k3 d10 k3, PS), for which, in data set [1] (MM.1R, 1 µM), the target mRNA inhibition was 36% and 47%.
Take CAGGTTTCATTTCATT (sugars k4 d8 k4, PS): the target mRNA inhibition in data set [1] (MM.1R, 0.074 µM) is 2%; in data set [1] (MM.1R, 0.222 µM) it was 3%; in data set [1] (MM.1R, 0.666 µM), 19%; in data set [1] (MM.1R, 2 µM), 15%; in data set [1] (SK-MEL-28, 0.185 µM), 14% and 13% and 18%; in data set [1] (SK-MEL-28, 4 µM), 54%. Further, the target mRNA inhibition in data set [1] (SK-MEL-28, 5 µM) was 57% and 55% and 67%; in data set [1] (SK-MEL-28, 15 µM), 74% and 72%.
AGCAAGTGTCTAAAGT (sugars k3 d10 k3, PS): the target mRNA inhibition was -1% in data set [1] (MM.1R, 0.0625 µM); -8% in data set [1] (MM.1R, 0.074 µM); 6% in data set [1] (MM.1R, 0.222 µM); 12% in data set [1] (MM.1R, 0.25 µM); 11% in data set [1] (MM.1R, 0.666 µM); 22% in data set [1] (MM.1R, 1 µM). In addition, the target mRNA inhibition in data set [1] (MM.1R, 2 µM) was 33%; in data set [1] (MM.1R, 4 µM), 51%; in data set [1] (SK-MEL-28, 4 µM), 62%.
Consider AGTAACTTGACTTGAG (sugars k3 d10 k3, PS), for which, in data set [1] (MM.1R, 1 µM), the target mRNA inhibition was -3%.
On the same count and under the same terms, with “TAGTATGAGAAACGGC (sugars kkkddddddddkekek, PS)” the figure was 30%.
On to ACACAGGCTAATCAGA (sugars k3 d10 k3, PS), for which the target mRNA inhibition in data set [1] (SK-MEL-28, 4 µM) was determined as 7%.
In the case of “CGTTTGACTGCTGCTA (sugars k3 d9 k3 e1, PS)”, the target mRNA inhibition in data set [2] (0.02 µM) is 4%; in data set [2] (0.078 µM), 17%; in data set [2] (0.313 µM), 34%; in data set [2] (1 µM), 75% and 50%; in data set [2] (1.25 µM) it was 57%; in data set [2] (5 µM), 66%.
In the case of TCCCAAGGCCTGAAGT (sugars k3 d10 k3, PS), the target mRNA inhibition in data set [2] (1 µM) amounted to 43%.
Same read-out and setting: with GGGAGTCGGATTATTT (sugars k3 d10 k3, PS) the figure was 33%.
Turning to CACTGTGACGATGTGG (sugars k3 d10 k3, PS), the target mRNA inhibition in data set [2] (1 µM) was 10%.
On the same count and under the same terms, with AACCTAATAACTACAT (sugars k3 d10 k3, PS) the figure was 0%; with “AATCCCAACCAAACTT (sugars k3 d1 m1 d8 k3, PS)”, 7%.
Still for that read-out and setting: in the case of “ATTCTGTGGCATGGCT (sugars k3 d9 k3 e1, PS)” it was 68%; in that of TGTCCAGAAGTATGTG (sugars k3 d10 k3, PS), 0%.
Consider “AATTGATACACCAATG (sugars kkdddddddddkekek, PS)”, for which, in data set [2] (1 µM), the target mRNA inhibition stood at 50%.
On to CTTAAGGATCATTGCA (sugars k3 d10 k3, PS), for which the target mRNA inhibition in data set [2] (1 µM) worked out at 29%.
On to “ATAACTACAAGAGGTT (sugars k3 d1 m1 d8 k3, PS)”, for which the target mRNA inhibition in data set [2] (1 µM) worked out at 61%.
For AGTCATATTGAAAATC (sugars k3 d10 k3, PS), the target mRNA inhibition in data set [2] (1 µM) turned out to be 39%.
Take GAGCTAGACAATTGCA (sugars k3 d10 k3, PS): in data set [2] (1 µM), the target mRNA inhibition was determined as 73%.
With TTGACATAACTTCATA (sugars k3 d10 k3, PS), the target mRNA inhibition in data set [2] (1 µM) came out at 15%.
As to AATTTGTGAACCTGCA (sugars k3 d10 k3, PS), the target mRNA inhibition in data set [2] (1 µM) came to 20%.
On the same count and under the same terms, with AGATTAGTCTTGATGT (sugars k3 d10 k3, PS) the figure was 63%.
Turning to CTTATACTGAAGGCTG (sugars k3 d10 k3, PS), the target mRNA inhibition in data set [2] (1 µM) turned out to be 48%.
On the same count and under the same terms, in the case of “AATAATAGCTCTATTG (sugars kkdddddddddkekek, PS)” it was 2%.
